These are literature values, as cited in patent publication US12233110B2, “Compositions comprising pharmaceutically acceptable salts of glucagon-like peptide-1 analogs and uses thereof” (i20 Therapeutics, Inc., priority 2021, dated 2025).

The structures appear in SMILES notation.

The conditions of this series: Reference Data.

Regarding `C[N+](C)(C)CCO` [choline], the pKa entry is “approximately 14”.
On to `O=C(O)O` [bicarbonate], for which the pKa entry is given as “approximately 6”.
